According to patent US11427549B2, “Pyrimidinyloxy benzo-fused compounds as herbicides” (FMC Corporation, priority 2017, dated 2022):

Experiments:
[1] = test system: foxtail, giant (giant foxtail, Setaria faberii); assay: Test A preemergence, foxtail, giant; format: in vivo; conditions: Setaria faberi, pre-emergence, 240 h, 0 to 100 scale (0 no effect, 100 complete control), read-out: Plant response rating, Foxtail, Giant; for pest or weed control at 31 g/ha: 31 g ai/ha; for pest or weed control at 125 g/ha: 125 g ai/ha
[2] = test system: ryegrass, Italian (Italian ryegrass, Lolium multiflorum); assay: Test A postemergence, ryegrass, Italian; format: in vivo; conditions: Lolium multiflorum, post-emergence, 240 h, 0 to 100 scale (0 no effect, 100 complete control), read-out: Plant response rating, Ryegrass, Italian; for pest or weed control at 31 g/ha: 31 g ai/ha; for pest or weed control at 125 g/ha: 125 g ai/ha
[3] = test system: pigweed (Amaranthus retroflexus); assay: Test A postemergence, pigweed; format: in vivo; conditions: Amaranthus retroflexus, post-emergence, 240 h, 0 to 100 scale (0 no effect, 100 complete control), read-out: Plant response rating, Pigweed; for pest or weed control at 31 g/ha: 31 g ai/ha; for pest or weed control at 125 g/ha: 125 g ai/ha
[4] = test system: ragweed (common ragweed, Ambrosia elatior); assay: Test A preemergence, ragweed; format: in vivo; conditions: Ambrosia artemisiifolia, pre-emergence, 240 h, 0 to 100 scale (0 no effect, 100 complete control), read-out: Plant response rating, Ragweed; for pest or weed control at 31 g/ha: 31 g ai/ha; for pest or weed control at 125 g/ha: 125 g ai/ha
[5] = test system: pigweed (Amaranthus retroflexus); assay: Test A preemergence, pigweed; format: in vivo; conditions: Amaranthus retroflexus, pre-emergence, 240 h, 0 to 100 scale (0 no effect, 100 complete control), read-out: Plant response rating, Pigweed; for pest or weed control at 31 g/ha: 31 g ai/ha; for pest or weed control at 125 g/ha: 125 g ai/ha
[6] = test system: barnyardgrass (Echinochloa crus-galli); assay: Test B flooded paddy test, barnyardgrass; conditions: Echinochloa crus-galli, read-out: Plant response rating, Barnyardgrass (0 to 100 scale, 0 is no effect, 100 is complete control)
[7] = test system: galium (catchweed bedstraw, Galium aparine); assay: Test A postemergence, galium; format: in vivo; conditions: Galium, post-emergence, 240 h, 0 to 100 scale (0 no effect, 100 complete control), read-out: Plant response rating, Galium; for pest or weed control at 31 g/ha: 31 g ai/ha; for pest or weed control at 125 g/ha: 125 g ai/ha
[8] = test system: ryegrass, Italian (Italian ryegrass, Lolium multiflorum); assay: Test A preemergence, ryegrass, Italian; format: in vivo; conditions: Lolium multiflorum, pre-emergence, 240 h, 0 to 100 scale (0 no effect, 100 complete control), read-out: Plant response rating, Ryegrass, Italian; for pest or weed control at 31 g/ha: 31 g ai/ha; for pest or weed control at 125 g/ha: 125 g ai/ha
[9] = test system: ducksalad (Heteranthera limosa); assay: Test B flooded paddy test, ducksalad; conditions: Heteranthera limosa, read-out: Plant response rating, Ducksalad (0 to 100 scale, 0 is no effect, 100 is complete control)
kochia (Kochia scoparia) [10] = assay: Test A preemergence, kochia; format: in vivo; conditions: Bassia scoparia, pre-emergence, 240 h, 0 to 100 scale (0 no effect, 100 complete control), read-out: Plant response rating, Kochia; for pest or weed control at 31 g/ha: 31 g ai/ha; for pest or weed control at 125 g/ha: 125 g ai/ha
rice (Oryza sativa) = assay: Test B flooded paddy test, rice; conditions: Oryza sativa, read-out: Plant response rating, Rice (0 to 100 scale, 0 is no effect, 100 is complete control)
[11] = test system: ragweed (common ragweed, Ambrosia elatior); assay: Test A postemergence, ragweed; format: in vivo; conditions: Ambrosia artemisiifolia, post-emergence, 240 h, 0 to 100 scale (0 no effect, 100 complete control), read-out: Plant response rating, Ragweed; for pest or weed control at 31 g/ha: 31 g ai/ha; for pest or weed control at 125 g/ha: 125 g ai/ha
[12] = test system: barnyardgrass (Echinochloa crus-galli); assay: Test A preemergence, barnyardgrass; format: in vivo; conditions: Echinochloa crus-galli, pre-emergence, 240 h, 0 to 100 scale (0 no effect, 100 complete control), read-out: Plant response rating, Barnyardgrass; for pest or weed control at 31 g/ha: 31 g ai/ha; for pest or weed control at 125 g/ha: 125 g ai/ha
corn (Zea mays) = assay: Test A postemergence, corn; format: in vivo; conditions: Zea mays, post-emergence, 240 h, 0 to 100 scale (0 no effect, 100 complete control); for Corn plant response rating (crop injury, 0 = no effect, 100 = complete kill) at 31 g/ha: 31 g ai/ha; for Corn plant response rating (crop injury, 0 = no effect, 100 = complete kill) at 125 g/ha: 125 g ai/ha
kochia (Kochia scoparia) [13] = assay: Test A postemergence, kochia; format: in vivo; conditions: Bassia scoparia, post-emergence, 240 h, 0 to 100 scale (0 no effect, 100 complete control), read-out: Plant response rating, Kochia; for pest or weed control at 31 g/ha: 31 g ai/ha; for pest or weed control at 125 g/ha: 125 g ai/ha
[14] = test system: blackgrass (Alopecurus myosuroides); assay: Test A postemergence, blackgrass; format: in vivo; conditions: Alopecurus myosuroides, post-emergence, 240 h, 0 to 100 scale (0 no effect, 100 complete control), read-out: Plant response rating, Blackgrass; for pest or weed control at 31 g/ha: 31 g ai/ha; for pest or weed control at 125 g/ha: 125 g ai/ha
[15] = test system: barnyardgrass (Echinochloa crus-galli); assay: Test A postemergence, barnyardgrass; format: in vivo; conditions: Echinochloa crus-galli, post-emergence, 240 h, 0 to 100 scale (0 no effect, 100 complete control), read-out: Plant response rating, Barnyardgrass; for pest or weed control at 31 g/ha: 31 g ai/ha; for pest or weed control at 125 g/ha: 125 g ai/ha
[16] = test system: wheat (Triticum aestivum); assay: Test A postemergence, wheat; format: in vivo; conditions: Triticum aestivum, post-emergence, 240 h, 0 to 100 scale (0 no effect, 100 complete control), read-out: Plant response rating, Wheat; for plant injury at 31 g/ha: 31 g ai/ha; for plant injury at 125 g/ha: 125 g ai/ha

Row | Structure (SMILES) | pest or weed control at 31 g/ha [1] | pest or weed control at 125 g/ha [1] | pest or weed control at 31 g/ha [2] | pest or weed control at 125 g/ha [2] | pest or weed control at 31 g/ha [3] | pest or weed control at 125 g/ha [3] | pest or weed control at 31 g/ha [4] | pest or weed control at 125 g/ha [4] | pest or weed control at 31 g/ha [5] | pest or weed control at 125 g/ha [5] | pest or weed control at 250 g/ha [6] | pest or weed control at 31 g/ha [7] | pest or weed control at 125 g/ha [7] | pest or weed control at 31 g/ha [8] | pest or weed control at 125 g/ha [8] | pest or weed control at 250 g/ha [9] | pest or weed control at 31 g/ha (kochia (Kochia scoparia) [10]) | pest or weed control at 125 g/ha (kochia (Kochia scoparia) [10]) | plant injury at 250 g/ha (rice (Oryza sativa)) | pest or weed control at 31 g/ha [11] | further results
1 | O=C1OC(CCCCC(F)(F)F)Cc2c(Oc3ncc(Cl)cn3)cccc21 (stereo not drawn) [Compound 31, 5-[(5-Chloro-2-pyrimidinyl)oxy]-3,4-dihydro-3-(5,5,5-trifluoropentyl)-1H-2-benzopyran-1-one] | 0% | 0% | 0% | 0% | 40% | 50% | 0% | 0% | 0% | 0% | 0% | 0% | 30% | 0% | 0% | 0% | 0% | 0% | 0% | 0% | pest or weed control at 125 g/ha [11]: 0%; pest or weed control at 31 g/ha [12]: 0%; pest or weed control at 125 g/ha [12]: 0%; Corn plant response rating (crop injury, 0 = no effect, 100 = complete kill) at 31 g/ha (corn (Zea mays)): 0%; Corn plant response rating (crop injury, 0 = no effect, 100 = complete kill) at 125 g/ha (corn (Zea mays)): 10%; pest or weed control at 31 g/ha (kochia (Kochia scoparia) [13]): 10%; pest or weed control at 125 g/ha (kochia (Kochia scoparia) [13]): 40%; pest or weed control at 31 g/ha [14]: 0%; pest or weed control at 125 g/ha [14]: 0%; pest or weed control at 31 g/ha [15]: 20%; pest or weed control at 125 g/ha [15]: 0%; plant injury at 31 g/ha [16]: 0%; plant injury at 125 g/ha [16]: 0%
2 | FC(F)(F)CCCC1OCCc2cccc(Oc3ncc(Cl)cn3)c21 (stereo not drawn) [Compound 27, 5-Chloro-2-[[3,4-dihydro-1-(4,4,4-trifluorobutyl)-1H-2-benzopyran-8-yl]oxy]pyrimidine] | 50% | 100% | 10% | 40% | 50% | 70% | 0% | 0% | 30% | 50% | 0% | 40% | 80% | 0% | 20% | 95% | 0% | 0% | 0% | 0% | pest or weed control at 125 g/ha [11]: 10%; pest or weed control at 31 g/ha [12]: 10%; pest or weed control at 125 g/ha [12]: 80%; Corn plant response rating (crop injury, 0 = no effect, 100 = complete kill) at 31 g/ha (corn (Zea mays)): 20%; Corn plant response rating (crop injury, 0 = no effect, 100 = complete kill) at 125 g/ha (corn (Zea mays)): 30%; pest or weed control at 31 g/ha (kochia (Kochia scoparia) [13]): 10%; pest or weed control at 125 g/ha (kochia (Kochia scoparia) [13]): 10%; pest or weed control at 31 g/ha [14]: 20%; pest or weed control at 125 g/ha [14]: 40%; pest or weed control at 31 g/ha [15]: 20%; pest or weed control at 125 g/ha [15]: 30%; plant injury at 31 g/ha [16]: 0%; plant injury at 125 g/ha [16]: 10%
3 | O=C1O[C@H](CCC(F)(F)F)c2c(Oc3ncc(Cl)cn3)cccc21 [Compound 19, (3R)-4-[(5-Chloro-2-pyrimidinyl)oxy]-3-(3,3,3-trifluoropropyl)-1(3H)-isobenzofuranone] | 100% | 100% | 80% | 100% | 100% | 100% | 0% | 60% | 100% | 100% | 60% | 90% | 100% | 10% | 90% | 100% | 90% | 100% | 50% | 30% | pest or weed control at 125 g/ha [11]: 70%; pest or weed control at 31 g/ha [12]: 80%; pest or weed control at 125 g/ha [12]: 100%; Corn plant response rating (crop injury, 0 = no effect, 100 = complete kill) at 31 g/ha (corn (Zea mays)): 40%; Corn plant response rating (crop injury, 0 = no effect, 100 = complete kill) at 125 g/ha (corn (Zea mays)): 70%; pest or weed control at 31 g/ha (kochia (Kochia scoparia) [13]): 80%; pest or weed control at 125 g/ha (kochia (Kochia scoparia) [13]): 100%; pest or weed control at 31 g/ha [14]: 100%; pest or weed control at 125 g/ha [14]: 100%; pest or weed control at 31 g/ha [15]: 50%; pest or weed control at 125 g/ha [15]: 100%; plant injury at 31 g/ha [16]: 20%; plant injury at 125 g/ha [16]: 100%
